Molecular target: Sphingosine 1-phosphate receptor 1 (Homo sapiens, UniProt P21453)
Test: hS1P1 ERK Phosphorylation (S1P1 pERK)
Procedure: hS1P1/CHO cells were plated into BD Amine 384-well plates the day before the assay. On the day of the assay, growth medium was removed and replaced with serum-free medium (Ham's F-12 Invitrogen) and incubated for 2 hours. Test compounds pre-diluted in HBSS (Gibco)/20 mM HEPES (Gibco) were transferred to the cell plates and incubated for 7 minutes at 37° C. Cells were lysed in lysis buffer (Perkin Elmer) and phospho-ERK was measured using the SureFire pERK kit (Perkin Elmer) as described by the manufacturer. Data was plotted as percentage activation of the test compound relative to the efficacy of 10 μM S1P.

Sequence of Sphingosine 1-phosphate receptor 1 (P21453 whole entry): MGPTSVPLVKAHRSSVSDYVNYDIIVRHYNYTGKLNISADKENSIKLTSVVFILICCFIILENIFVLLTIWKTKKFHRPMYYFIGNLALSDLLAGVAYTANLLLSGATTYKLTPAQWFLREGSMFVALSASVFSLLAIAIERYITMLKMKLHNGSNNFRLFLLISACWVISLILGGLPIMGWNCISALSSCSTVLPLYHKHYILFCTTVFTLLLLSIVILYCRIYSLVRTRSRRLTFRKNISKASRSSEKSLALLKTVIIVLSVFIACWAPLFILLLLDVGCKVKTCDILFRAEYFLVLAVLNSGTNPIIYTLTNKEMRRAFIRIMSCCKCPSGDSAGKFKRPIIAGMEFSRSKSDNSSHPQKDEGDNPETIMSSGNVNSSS

## CCSCC[C@H]1CCc2cc([C@H]3CC[C@](N)(COP(=O)(O)O)C3)ccc2C1 [US10166249, Example 532]
  EC50: < 10 nM
